{"source": "paper PMC11678162", "about": "(Pharmaceutics, 2024)", "key": {"[1]": {"tested_on": "human peripheral blood mononuclear cells (PBMC)", "assay": "Cytotoxicity, resazurin assay", "format": "cell-based", "conditions": "RPMI-1640 + 10% FBS, 24 h of incubation", "experimental": "The cytotoxic effect of the peptides was tested on human peripheral blood mononuclear cells (PBMC) using the resazurin assay. To perform the analysis, double serial dilutions of the studied peptides were performed in RPMI-1640 nutrient medium supplemented with 10% FBS in sterile 96-well flat-bottom polystyrene microplates (Nest, Wuxi, Jiangsu, China). Next, an equal volume of RPMI medium containing a suspension of freshly isolated PBMC was added to the peptide solution to a total volume of 100 μL and a cell concentration of 5 × 10^4 per well. The plates were incubated for 20 h in a CO2 incubator (5% CO2, 37 °C) and then 5 µL of resazurin solution was added at a concentration of 0.1 mg/mL, after which the incubation was continued for 4 h. The fluorescence of the formed resorufin was measured using an AF2200 microplate reader (Eppendorf, Germany) using the following channel: λExc = 535 nm; λem = 595 nm. The fluorescence signal in the wells containing cells cultured without peptides was taken as a 100% cell viability. Wells containing no cells were used as a negative control. Experimental data were obtained in two independent experiments performed in triplicate."}, "Stability in serum": {"assay": "Stability in serum", "format": "in vitro ADME, human", "conditions": "37 °C", "experimental": "The serum stability of DsGom was determined in 25% fresh human serum in PBS (pH 7.4), as described previously. Briefly, 20 μL of aqueous peptide stock solution (5 mg/mL) was added to 480 μL of serum solution and incubated for 0, 2, 8, and 24 h at 37 °C. After incubation, serum proteins were selectively precipitated from the mixture by adding 10% TFA in the presence of 3.75 M of urea. Subsequently, the samples were stored at 0 °C for 30 min and centrifuged at 30,000× g for 10 min. Equal volumes of supernatants after serum protein precipitation were analyzed by analytical HPLC (Symmetry 300 C18 column, Waters, Milford, MA, USA) and MALDI-TOF MS. The amount of the intact peptide was estimated from the corresponding peak area on the HPLC chromatogram. For each peptide, two independent experiments were performed in triplicate. The comparison of the results and statistical processing were performed using GraphPad Prism 6.0 (GraphPad Software, Boston, MA, USA)."}, "[2]": {"tested_on": "freshly isolated human erythrocytes (hRBCs)", "assay": "Hemolysis (hemoglobin release assay)", "format": "cell-based", "conditions": "4% hRBCs, 1.5 h of incubation", "experimental": "Hemolytic activity was determined using freshly isolated human erythrocytes (hRBCs) according to a previously published method. Isotonic phosphate buffer (PBS) and 0.1% Triton X-100 were used as controls for the absence of lysis and complete disintegration of hRBCs, respectively."}, "serum": {"assay": "serum", "conditions": "cited from earlier work"}, "[3]": {"assay": "25% fresh human serum in PBS (pH 7.4)", "conditions": "37 °C, up to 24 h"}}, "note": "Bridge positions count the residues as written; N and C are the ends. Square brackets hold non-standard residues; d marks the D form. Peptide text beside a SMILES is read from it. pGlu = O=C1CC[C@@H](C(=O)O)N1", "data": [{"compound": "CC(C)[C@@H]1NC(=O)[C@@H]2CSSC[C@H](NC(=O)[C@H](C(C)C)NC(=O)[C@H](CCCNC(=N)N)NC(=O)[C@H](CCCNC(=N)N)NC(=O)[C@@H](NC(=O)[C@@H](N)CCCNC(=N)N)CSSC[C@@H](C(=O)O)NC(=O)[C@H](Cc3ccc(O)cc3)NC(=O)[C@H](CCC(N)=O)NC1=O)C(=O)N[C@@H](Cc1ccc(O)cc1)C(=O)N[C@@H](CCCCN)C(=O)N[C@@H](CCCCN)C(=O)N[C@@H](CCCNC(=N)N)C(=O)N2", "note": "[DS7] (H-RCRRVCYKKRCVQYC-OH; disulfide 2-15, 6-11)", "values": [{"measurement": "cytotoxic effects on PBMC (in words)", "setting": "[1]", "result": "significantly enhanced cytotoxic effects on PBMC"}]}, {"compound": "CC(C)[C@@H]1NC(=O)[C@@H]2CSSC[C@H](NC(=O)[C@H](C(C)C)NC(=O)[C@H](CCCNC(=N)N)NC(=O)[C@H](Cc3c[nH]cn3)NC(=O)[C@@H](NC(=O)[C@@H](N)CCCNC(=N)N)CSSC[C@@H](C(=O)O)NC(=O)[C@H](Cc3ccc(O)cc3)NC(=O)[C@H](CCC(N)=O)NC1=O)C(=O)N[C@@H](Cc1ccc(O)cc1)C(=O)N[C@@H](Cc1c[nH]cn1)C(=O)N[C@@H](CCCCN)C(=O)N[C@@H](Cc1c[nH]cn1)C(=O)N2", "note": "[DsGom] (H-RCHRVCYHKHCVQYC-OH; disulfide 2-15, 6-11)", "values": [{"measurement": "remaining at 24 h, 0.2 mg/mL", "setting": "Stability in serum; 25% fresh human serum in PBS (pH 7.4), 20 μL of 5 mg/mL stock in 480 μL, TFA/urea precipitation, HPLC peak area (0 h = 100%), two independent experiments in triplicate, read-out: initial amount of peptide remaining intact", "result": "≥ 90", "unit": "%"}, {"measurement": "percentage of the form without the N-terminal arginine residue in the main peak", "setting": "Stability in serum; 25% human serum in PBS, 24 h, MALDI MS of the HPLC fraction", "result": "< 10", "unit": "%"}, {"measurement": "grade of hemolysis", "setting": "[2]; 128 µM peptide, 0.1% Triton X-100 = complete lysis, two independent experiments", "result": "~ 1%"}]}, {"compound": "ZCRRLCYKQRCVTYCRGR", "values": [{"measurement": "not cleaved", "setting": "serum", "result": "quite stable in the presence of serum enzymes"}]}, {"compound": "RCHRVCYHKHCVQYC", "values": [{"measurement": "cleaved bond", "setting": "[3]", "result": "Arg1-C2, minor, 8 h"}]}, {"compound": "CC(C)[C@@H]1NC(=O)[C@@H]2CSSC[C@H](NC(=O)[C@H](C(C)C)NC(=O)[C@H](CCCNC(=N)N)NC(=O)[C@H](CCCNC(=N)N)NC(=O)[C@@H](NC(=O)[C@@H](N)CCCNC(=N)N)CSSC[C@@H](C(=O)O)NC(=O)[C@H](Cc3ccc(O)cc3)NC(=O)[C@H](CCC(N)=O)NC1=O)C(=O)N[C@@H](Cc1ccc(O)cc1)C(=O)N[C@@H](CCCCN)C(=O)N[C@@H](CCCCN)C(=O)N[C@@H](Cc1c[nH]cn1)C(=O)N2", "note": "[DS5] (H-RCRRVCYKKHCVQYC-OH; disulfide 2-15, 6-11)", "values": [{"measurement": "cytotoxic effects on PBMC (in words)", "setting": "[1]", "result": "significantly enhanced cytotoxic effects on PBMC"}]}, {"compound": "CC(C)C[C@@H]1NC(=O)[C@H](CCCNC(=N)N)NC(=O)[C@H](CCCNC(=N)N)NC(=O)[C@@H](NC(=O)[C@@H]2CCC(=O)N2)CSSC[C@@H](C(=O)N[C@@H](CO)C(=O)NCC(=O)N[C@@H](CCCNC(=N)N)C(=O)O)NC(=O)[C@H](Cc2ccc(O)cc2)NC(=O)[C@H]([C@@H](C)O)NC(=O)[C@H](CC(C)C)NC(=O)[C@@H]2CSSC[C@H](NC1=O)C(=O)N[C@@H](Cc1ccccc1)C(=O)N[C@@H](CCCNC(=N)N)C(=O)N[C@@H](CC(N)=O)C(=O)N[C@@H](CCCNC(=N)N)C(=O)N2", "note": "[Gom-2] ([pGlu]CRRLCFRNRCLTYCSGR-OH; disulfide 2-15, 6-11)", "values": [{"measurement": "hemolytic activity (in words)", "setting": "[2]; compared to gomesin", "result": "significantly higher grade of hemolytic activity"}]}]}
